As usually defined, the IC50 is the midpoint of a concentration-inhibition curve. As a reminder, the viability, T/C is the result in the treated group divided by that in the control group, in per cent.

In PubChem BioAssay AID1919013 (Molecular Pharmacology Branch, DTP, NCI, 2023) one finds IC50 and viability, T/C data, which are given here for 5 compounds.

Where “and” joins values, the source holds several entries; their conditions need not be identical. Equal values may be shown once. Where only a bound is given, the exact number is not on record here.

The assay concerns LG0703-F498-PDC complex spheroid growth. In words: Anticancer human tumor LG0703-F498-PDC patient-derived lung adenocarcinoma cell line growth inhibition [AhR]. The note with it: for viability, T/C: stronger effect = lower value. The method in brief:
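Spheroids combined tumor cells with HUVEC endothelial cells and human MSCs as stroma. AhR antagonists were paired with standard or investigational drugs, each dosed in half-log steps down from near clinical Cmax, or from 10 microM where Cmax was unknown.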

[1] abbreviates: curve of first compound, second compound 0.1 µM.
The mark [2] stands for this setting: curve of first compound, second compound 0.316 µM.
Setting [3] is: curve of first compound, second compound 1 µM.
[4] abbreviates: curve of first compound, second compound 3.16 µM.
The mark [5] stands for this setting: curve of first compound, second compound 10 µM.
[6] abbreviates: second compound 0.1 µM, first compound 0.0316 µM.
The mark [7] stands for this setting: second compound 0.1 µM, first compound 0.1 µM.
Setting [8] is: second compound 0.316 µM, first compound 0.0316 µM.
Where [9] appears, read: second compound 0.316 µM, first compound 0.1 µM.
Setting [10] is: second compound 1 µM, first compound 0.0316 µM.
The mark [11] stands for this setting: second compound 1 µM, first compound 0.1 µM.
[12] abbreviates: second compound 3.16 µM, first compound 0.0316 µM.
Where [13] appears, read: second compound 3.16 µM, first compound 0.1 µM.
Setting [14] is: second compound 10 µM, first compound 0.0316 µM.
The mark [15] stands for this setting: second compound 10 µM, first compound 0.1 µM.
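Also: luminescence taken as a proxy for viable cell amount.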
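For viability, T/C in this document: percent of DMSO vehicle control where 100% means growth equal to vehicle.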

In the case of `Nc1ccn(C2OC(CO)C(O)C2(F)F)c(=O)n1` (centres undefined) + CC(CO)NC(=O)c1cc(-c2ccc(Cl)cc2)nn(-c2cnn(C)c2)c1=O, the IC50 reads like this: under setting [1], less than 31.6 nM; under setting [2], less than 31.6 nM; under setting [3], less than 31.6 nM; under setting [4], less than 31.6 nM; under setting [5], less than 31.6 nM. Moreover, the viability, T/C runs as follows: under setting [6], 43.6%; under setting [7], 43.4%; (second compound 0.1 µM, first compound 0.316 µM) 39.1%; (second compound 0.1 µM, first compound 1 µM) 38.8%; (second compound 0.1 µM, first compound 3.16 µM) 35.7%; (second compound 0.1 µM, first compound 10 µM) 26.6%. The viability, T/C by setting is: under setting [8], 43.3%; under setting [9], 41.7%; (second compound 0.316 µM, first compound 0.316 µM) 41.1%; (second compound 0.316 µM, first compound 1 µM) 38.3%; (second compound 0.316 µM, first compound 3.16 µM) 28.4%; (second compound 0.316 µM, first compound 10 µM) 27.3%. Further, the viability, T/C under setting [10] is 46.7%; the viability, T/C under setting [11] was 47.5%; the viability, T/C (second compound 1 µM, first compound 0.316 µM) is 39.9%; the viability, T/C (second compound 1 µM, first compound 1 µM) is 37.9%; the viability, T/C (second compound 1 µM, first compound 3.16 µM) was 31%; the viability, T/C (second compound 1 µM, first compound 10 µM) was 27.1%. In addition, the viability, T/C reads like this: under setting [12], 42.8%; under setting [13], 41.9%; (second compound 3.16 µM, first compound 0.316 µM) 41.9%; (second compound 3.16 µM, first compound 1 µM) 39.2%; (second compound 3.16 µM, first compound 3.16 µM) 29.2%; (second compound 3.16 µM, first compound 10 µM) 23.9%. In addition, the viability, T/C under setting [14] was 40%; the viability, T/C under setting [15] is 40.5%; the viability, T/C (second compound 10 µM, first compound 0.316 µM) is 45%; the viability, T/C (second compound 10 µM, first compound 1 µM) is 34.5%; the viability, T/C (second compound 10 µM, first compound 3.16 µM) was 27.2%; the viability, T/C (second compound 10 µM, first compound 10 µM) was 23.7%.

Turning to `CCN(c1cc(-c2ccc(CN3CCOCC3)cc2)cc(C(=O)NCc2c(C)cc(C)[nH]c2=O)c1C)C1CCOCC1`, the viability, T/C was 102% and 110% and 103% (compound 0.00949 µM); 111% and 109% and 112% (compound 0.03 µM); 103% and 98.8% and 101% (compound 0.0949 µM); 99.3% and 99% and 107% (compound 0.3 µM); 122% and 101% and 121% (compound 0.949 µM); 106% and 110% and 113% (compound 3 µM). Besides, where the note is “curve of compound”, the IC50 is more than 3000 nM.

`CCc1c2c(nc3ccc(O)cc13)-c1cc3c(c(=O)n1C2)COC(=O)[C@]3(O)CC` + Cc1ccccc1N=Nc1ccc(NC(=O)c2ccnn2C)c(C)c1: the IC50 under setting [1] is 49.4 nM; the IC50 under setting [2] turned out to be 43.3 nM; the IC50 under setting [3] came out at 30.7 nM; the IC50 under setting [4] is 23.9 nM; the IC50 under setting [5] stood at 37.1 nM. Also, the viability, T/C reads like this: (second compound 0.1 µM, first compound 0.000949 µM) 79.1%; (second compound 0.1 µM, first compound 0.003 µM) 92.9%; (second compound 0.1 µM, first compound 0.00949 µM) 77.1%; (second compound 0.1 µM, first compound 0.03 µM) 56.8%; (second compound 0.1 µM, first compound 0.0949 µM) 41.5%; (second compound 0.1 µM, first compound 0.3 µM) 29.2%. The viability, T/C was 98.5% (second compound 0.316 µM, first compound 0.000949 µM); 94.6% (second compound 0.316 µM, first compound 0.003 µM); 75.8% (second compound 0.316 µM, first compound 0.00949 µM); 57.9% (second compound 0.316 µM, first compound 0.03 µM); 35.6% (second compound 0.316 µM, first compound 0.0949 µM); 24.9% (second compound 0.316 µM, first compound 0.3 µM). For the same compound, the viability, T/C (second compound 1 µM, first compound 0.000949 µM) was 86.5%; the viability, T/C (second compound 1 µM, first compound 0.003 µM) is 79.7%; the viability, T/C (second compound 1 µM, first compound 0.00949 µM) was 69.2%; the viability, T/C (second compound 1 µM, first compound 0.03 µM) was 48.4%; the viability, T/C (second compound 1 µM, first compound 0.0949 µM) was 36.3%; the viability, T/C (second compound 1 µM, first compound 0.3 µM) is 24.5%. For the same compound, the viability, T/C by setting is: (second compound 3.16 µM, first compound 0.000949 µM) 93.9%; (second compound 3.16 µM, first compound 0.003 µM) 83.3%; (second compound 3.16 µM, first compound 0.00949 µM) 64.3%; (second compound 3.16 µM, first compound 0.03 µM) 45%; (second compound 3.16 µM, first compound 0.0949 µM) 34.1%; (second compound 3.16 µM, first compound 0.3 µM) 21.7%. Also, the viability, T/C runs as follows: (second compound 10 µM, first compound 0.000949 µM) 65.8%; (second compound 10 µM, first compound 0.003 µM) 79%; (second compound 10 µM, first compound 0.00949 µM) 69.1%; (second compound 10 µM, first compound 0.03 µM) 51.7%; (second compound 10 µM, first compound 0.0949 µM) 35.8%; (second compound 10 µM, first compound 0.3 µM) 24.7%.

As for `CC[C@@]1(O)C(=O)OCc2c1cc1n(c2=O)Cc2cc3c(CN(C)C)c(O)ccc3nc2-1` + Cc1ccccc1N=Nc1ccc(NC(=O)c2ccnn2C)c(C)c1, the IC50 under setting [1] is more than 100 nM; the IC50 under setting [2] is more than 100 nM; the IC50 under setting [3] is more than 100 nM; the IC50 under setting [4] is more than 100 nM; the IC50 under setting [5] was more than 100 nM. Further, the viability, T/C is 94.9% (second compound 0.1 µM, first compound 0.000316 µM); 116% (second compound 0.1 µM, first compound 0.001 µM); 92.2% (second compound 0.1 µM, first compound 0.00316 µM); 96.2% (second compound 0.1 µM, first compound 0.01 µM); 88.5% under setting [6]; 60.3% under setting [7]. Besides, the viability, T/C was 97.8% (second compound 0.316 µM, first compound 0.000316 µM); 93.6% (second compound 0.316 µM, first compound 0.001 µM); 78.5% (second compound 0.316 µM, first compound 0.00316 µM); 93.6% (second compound 0.316 µM, first compound 0.01 µM); 77.2% under setting [8]; 66.6% under setting [9]. In addition, the viability, T/C by setting is: (second compound 1 µM, first compound 0.000316 µM) 93.9%; (second compound 1 µM, first compound 0.001 µM) 82.2%; (second compound 1 µM, first compound 0.00316 µM) 83.5%; (second compound 1 µM, first compound 0.01 µM) 82.2%; under setting [10], 78.9%; under setting [11], 61.2%. Besides, the viability, T/C is 84.4% (second compound 3.16 µM, first compound 0.000316 µM); 83.9% (second compound 3.16 µM, first compound 0.001 µM); 86.1% (second compound 3.16 µM, first compound 0.00316 µM); 72.6% (second compound 3.16 µM, first compound 0.01 µM); 61.1% under setting [12]; 51.1% under setting [13]. The viability, T/C (second compound 10 µM, first compound 0.000316 µM) was 72.9%; the viability, T/C (second compound 10 µM, first compound 0.001 µM) is 80.5%; the viability, T/C (second compound 10 µM, first compound 0.00316 µM) is 78.7%; the viability, T/C (second compound 10 µM, first compound 0.01 µM) is 63.9%; the viability, T/C under setting [14] is 57.1%; the viability, T/C under setting [15] was 60.2%.

`Nc1ncn(C2CC(O)C(CO)O2)c(=O)n1` (centres undefined): the viability, T/C (compound 0.00316 µM) was 101% (2×) and 107%; the viability, T/C (compound 0.01 µM) is 102% (2×) and 103%; the viability, T/C (compound 0.0316 µM) is 107% and 91.4% and 87.8%; the viability, T/C (compound 0.1 µM) was 88.2% and 98.2% and 82.9%; the viability, T/C (compound 0.316 µM) is 99.3% and 80.2% and 89.1%; the viability, T/C (compound 1 µM) was 80% and 86.7% and 87.6%. Also, the half-maximal inhibitory concentration (IC50) (curve of compound) was more than 1000 nM.
